Experimental data reported in ChEMBL document CHEMBL3046247, “Anti-inflammatory and antioxidant activities of some extracts and pure natural products isolated from Rhus tripartitum (Ucria)” (Med Chem Res, 2010).
Values after ≈ are worked out from the molar mass of the structure shown.

Legend:
Type in all cases: functional
[1] = Antioxidant activity assessed as inhibition of ABTS radical formation at 0.03 mg/ml measured at 5 min relative to trolox
[2] = Antioxidant activity assessed as inhibition of ABTS radical formation at 0.03 mg/ml measured at 20 min relative to trolox
[3] = Antioxidant activity assessed as inhibition of ABTS radical formation at 1 mg/ml measured at 10 min relative to trolox
[4] = Antioxidant activity assessed as inhibition of ABTS radical formation at 0.5 mg/ml measured at 20 min relative to trolox
[5] = Antioxidant activity assessed as inhibition of ABTS radical formation at 0.25 mg/ml measured at 20 min relative to trolox
[6] = tested on: Radical scavenging activity; assay: Antioxidant activity assessed as inhibition of DPPH radical formation at 0.2 to 1 mg/ml measured at 30 min relative to trolox
[7] = Antioxidant activity assessed as inhibition of ABTS radical formation at 0.25 mg/ml measured at 15 min relative to trolox
[8] = Antioxidant activity assessed as trolox equivalent of ABTS radical scavenging activity at 5 min
[9] = Antioxidant activity assessed as trolox equivalent of ABTS radical scavenging activity at 15 min
[10] = Antioxidant activity assessed as inhibition of ABTS radical formation at 0.06 mg/ml measured at 20 min relative to trolox
[11] = Antioxidant activity assessed as inhibition of ABTS radical formation at 0.03 mg/ml measured at 10 min relative to trolox
[12] = Antioxidant activity assessed as inhibition of ABTS radical formation at 0.25 mg/ml measured at 5 min relative to trolox
[13] = tested on: Radical scavenging activity; assay: Antioxidant activity assessed as inhibition of DPPH radical formation measured at 30 min relative to trolox
[14] = Antioxidant activity assessed as trolox equivalent of ABTS radical scavenging activity at 10 min
[15] = Antioxidant activity assessed as inhibition of ABTS radical formation at 0.12 mg/ml measured at 10 min relative to trolox
[16] = Antioxidant activity assessed as inhibition of ABTS radical formation at 0.12 mg/ml measured at 15 min relative to trolox
[17] = Antioxidant activity assessed as trolox equivalent of ABTS radical scavenging activity at 20 min
[18] = Antioxidant activity assessed as inhibition of ABTS radical formation at 0.25 mg/ml measured at 10 min relative to trolox
[19] = Antioxidant activity assessed as inhibition of ABTS radical formation at 0.06 mg/ml measured at 5 min relative to trolox
[20] = Antioxidant activity assessed as inhibition of ABTS radical formation at 0.5 mg/ml measured at 5 min relative to trolox
[21] = Antioxidant activity assessed as inhibition of ABTS radical formation at 0.03 mg/ml measured at 15 min relative to trolox
[22] = Antioxidant activity assessed as inhibition of ABTS radical formation at 1 mg/ml measured at 20 min relative to trolox
[23] = Antioxidant activity assessed as inhibition of ABTS radical formation at 0.06 mg/ml measured at 10 min relative to trolox
[24] = Antioxidant activity assessed as inhibition of ABTS radical formation at 0.06 mg/ml measured at 15 min relative to trolox
[25] = Antioxidant activity assessed as inhibition of ABTS radical formation at 1 mg/ml measured at 15 min relative to trolox
[26] = Antioxidant activity assessed as inhibition of ABTS radical formation at 1 mg/ml measured at 5 min relative to trolox
[27] = Antioxidant activity assessed as inhibition of ABTS radical formation at 0.12 mg/ml measured at 5 min relative to trolox
[28] = Antioxidant activity assessed as inhibition of ABTS radical formation at 0.5 mg/ml measured at 10 min relative to trolox
[29] = Antioxidant activity assessed as inhibition of ABTS radical formation at 0.12 mg/ml measured at 20 min relative to trolox
[30] = Antioxidant activity assessed as inhibition of ABTS radical formation at 0.5 mg/ml measured at 15 min relative to trolox
[31] = tested on: Rattus norvegicus; assay: Anti-inflammatory activity in fasted Rattus norvegicus Wistar (rat) assessed as inhibition of carrageenan-induced paw edema at 1 mg/kg, ip administered 1 hr prior to carrageenan challenge measured at 1 hr relative to control; details: route intraperitoneal
[32] = tested on: Rattus norvegicus; assay: Anti-inflammatory activity in fasted Rattus norvegicus Wistar (rat) assessed as inhibition of carrageenan-induced paw edema at 1 mg/kg, ip administered 1 hr prior to carrageenan challenge measured at 5 hr relative to control; details: route intraperitoneal
[33] = tested on: Rattus norvegicus; assay: Anti-inflammatory activity in fasted Rattus norvegicus Wistar (rat) assessed as inhibition of carrageenan-induced paw edema at 1 mg/kg, ip administered 1 hr prior to carrageenan challenge measured at 3 hr relative to control; details: route intraperitoneal
[34] = tested on: Rattus norvegicus; assay: Anti-inflammatory activity in fasted Rattus norvegicus Wistar (rat) assessed as inhibition of carrageenan-induced paw edema at 0.5 mg/kg, ip administered 1 hr prior to carrageenan challenge measured at 3 hr relative to control; details: route intraperitoneal
[35] = tested on: Rattus norvegicus; assay: Anti-inflammatory activity in fasted Rattus norvegicus Wistar (rat) assessed as inhibition of carrageenan-induced paw edema at 0.1 mg/kg, ip administered 1 hr prior to carrageenan challenge measured at 3 hr relative to control; details: route intraperitoneal
[36] = tested on: Rattus norvegicus; assay: Anti-inflammatory activity in fasted Rattus norvegicus Wistar (rat) assessed as inhibition of carrageenan-induced paw edema at 0.1 mg/kg, ip administered 1 hr prior to carrageenan challenge measured at 5 hr relative to control; details: route intraperitoneal
[37] = tested on: Rattus norvegicus; assay: Anti-inflammatory activity in fasted Rattus norvegicus Wistar (rat) assessed as inhibition of carrageenan-induced paw edema at 0.1 mg/kg, ip administered 1 hr prior to carrageenan challenge measured at 1 hr relative to control; details: route intraperitoneal
[38] = tested on: Rattus norvegicus; assay: Anti-inflammatory activity in fasted Rattus norvegicus Wistar (rat) assessed as inhibition of carrageenan-induced paw edema at 0.5 mg/kg, ip administered 1 hr prior to carrageenan challenge measured at 1 hr relative to control; details: route intraperitoneal
[39] = tested on: Rattus norvegicus; assay: Anti-inflammatory activity in fasted Rattus norvegicus Wistar (rat) assessed as inhibition of carrageenan-induced paw edema at 0.5 mg/kg, ip administered 1 hr prior to carrageenan challenge measured at 5 hr relative to control; details: route intraperitoneal
[40] = tested on: Radical scavenging activity; assay: Antioxidant activity assessed as inhibition of DPPH radical formation at 1 mg/ml measured at 30 min relative to trolox

O=c1c(O)c(-c2cc(O)c(O)c(O)c2)oc2cc(O)cc(O)c12 [MYRICETIN]
Imax [1]: 13.3% | Imax [2]: 16.6% | Imax [3]: 99.8% | Imax [4]: 98.6% | Imax [5]: 88.6% | Imax [6]: 75.1% | Imax [7]: 86.1% | Activity [8]: 2.4 mMequiv/mg | Activity [9]: 2.38 mMequiv/mg | Imax [10]: 32.8% | Imax [11]: 14.5% | Imax [12]: 78.8% | IC50 [13]: 22 µg/mL (≈ 69.1 µM) | Activity [14]: 2.4 mMequiv/mg | Imax [15]: 48.3% | Imax [16]: 51.1% | Activity [17]: 2.4 mMequiv/mg | Imax [18]: 83.2% | Imax [19]: 27.8% | Imax [20]: 98.5% | Imax [21]: 16% | Imax [22]: 99.8% | Imax [23]: 29.8% | Imax [24]: 31.6% | Imax [25]: 99.8% | Imax [26]: 99.7% | Imax [27]: 45.4% | Imax [28]: 98.7% | Imax [29]: 53.2% | Imax [30]: 98.6%

C[C@@H]1C[C@H]2[C@@H]3CCC4=CC(=O)C=C[C@]4(C)[C@@]3(F)[C@@H](O)C[C@]2(C)[C@@]1(O)C(=O)CO [DEXAMETHASONE]
inhibition in vivo at 1 mg/kg [31]: 23% | inhibition in vivo at 1 mg/kg [32]: 40% | inhibition in vivo at 1 mg/kg [33]: 30%

O=C1C[C@H](c2ccc(O)cc2)Oc2cc(Oc3c(O)cc4c(c3O)C(=O)C[C@H](c3ccc(O)cc3)O4)cc(O)c21 [MASAZINOFLAVANONE]
Imax [1]: 13.3% | Imax [2]: 18.3% | Imax [3]: 73% | Imax [4]: 64.4% | Imax [5]: 52.3% | Imax [7]: 49.8% | Activity [8]: 1.12 mMequiv/mg | Activity [9]: 1.18 mMequiv/mg | Imax [10]: 38.4% | Imax [11]: 15.1% | inhibition in vivo at 0.5 mg/kg [34]: 25% | Imax [12]: 40.9% | inhibition in vivo at 0.1 mg/kg [35]: 8% | Activity [14]: 1.15 mMequiv/mg | Imax [15]: 35.9% | Imax [16]: 43.2% | inhibition in vivo at 1 mg/kg [31]: 31% | inhibition in vivo at 0.1 mg/kg [36]: 10% | Activity [17]: 1.2 mMequiv/mg | Imax [18]: 47.7% | Imax [19]: 26.7% | Imax [20]: 59.5% | inhibition in vivo at 1 mg/kg [32]: 27% | inhibition in vivo at 0.1 mg/kg [37]: 7% | Imax [21]: 16.3% | Imax [22]: 77.7% | inhibition in vivo at 0.5 mg/kg [38]: 24% | Imax [23]: 30.4% | inhibition in vivo at 0.5 mg/kg [39]: 14% | Imax [24]: 36.2% | inhibition in vivo at 1 mg/kg [33]: 31% | Imax [25]: 75.5% | Imax [26]: 72% | Imax [27]: 32.8% | Imax [28]: 60.6% | Imax [29]: 45.7% | Imax [30]: 62.5%

COc1cc([C@@H]2c3c(cc(OC)c(O)c3OC)C[C@H](CO)[C@H]2CO[C@@H]2O[C@H](CO)[C@@H](O)[C@H](O)[C@H]2O)cc(OC)c1O
Imax [1]: 13.2% | Imax [2]: 23.3% | Imax [3]: 55.3% | Imax [4]: 66.6% | Imax [5]: 47.8% | Imax [7]: 41.6% | Activity [8]: 1.19 mMequiv/mg | Activity [9]: 1.45 mMequiv/mg | Imax [10]: 29.9% | Imax [11]: 15.3% | Imax [12]: 31.9% | Imax [40]: 64.4% | IC50 [13]: 251.1 µg/mL (≈ 431 µM) | Activity [14]: 1.33 mMequiv/mg | Imax [15]: 27.2% | Imax [16]: 30.9% | Activity [17]: 1.58 mMequiv/mg | Imax [18]: 37.8% | Imax [19]: 18% | Imax [20]: 48.5% | Imax [21]: 18.9% | Imax [22]: 65.5% | Imax [23]: 20.8% | Imax [24]: 24.6% | Imax [25]: 60.1% | Imax [26]: 49.4% | Imax [27]: 23.8% | Imax [28]: 55.5% | Imax [29]: 35.7% | Imax [30]: 60.9%
